Source: patent US11512268B2, “Storage-stable enzyme preparations, their production and use” (BASF SE, priority 2017, dated 2022)

Tests used:
Lipolase = target: T1, Lipolase (Thermomyces lanuginosus, UniProt O59952); assay: storage stability of lipase (Lipolase activity, pNitrophenol-valerate substrate) in liquid formulations at 37° C.; format: biochemical, Thermomyces lanuginosa; details: Lipolase 0.4 wt %, storage at 37° C.
T1 construct: purchased Sigma-Aldrich
T1 sequence (O59952 23-291): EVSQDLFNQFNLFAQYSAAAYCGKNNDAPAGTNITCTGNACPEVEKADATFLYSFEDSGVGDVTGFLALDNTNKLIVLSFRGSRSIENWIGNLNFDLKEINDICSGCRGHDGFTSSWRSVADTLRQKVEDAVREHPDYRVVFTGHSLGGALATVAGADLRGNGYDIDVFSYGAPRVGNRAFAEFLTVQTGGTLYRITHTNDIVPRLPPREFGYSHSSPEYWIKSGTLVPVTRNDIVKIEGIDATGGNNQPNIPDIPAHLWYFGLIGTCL
Method: (§1) The storage stability of Lipase and Protease in water was assessed at 37° C.
(§2) Base test formulations were manufactured by making base formulations I to VI by mixing the components according to Table 1.
(§3) The respective salt (component (a)) or comparative compound was added, if applicable, to the respective base formulation in amounts as indicated in Table 1.
(§4) The amount of enzyme as provided in Table 1 refers to active protein. Either lipase or protease was added, depending on which enzyme activity was measured.
(§5) Lipolase® 100 L (CAS-No. 9001-62-1, EC-No. 232-619-9) was purchased from Sigma-Aldrich. Savinase® 16.0 L (CAS-No. 9014-01-1, EC-No. 232-752-2) was purchased from Sigma-Aldrich.
Lipolase activity at certain points in time as indicated in Table 2 was be determined by employing pNitrophenol-valerate (2.4 mM pNP-C5 in 100 mM Tris pH 8.0, 0.01% Triton X100) as a substrate. The absorption was measured at 20° C. every 30 seconds over 5 minutes at 405 nm. The slope (absorbance increase at 405 nm per minute) of the time dependent absorption-curve is directly proportional to the activity of the lipase.
The lipolytic activity values provided in Table 2 were calculated referring to the 100% value determined in the reference formulation at the time 0.
(§6) The nomenclature of formulations is as follows: the Roman number before the full stop characterizes the base formulation, the Arabian number the type of salt (A.# inventive salt (component (a)); C-(A.#) comparative compound). Zero (“0”): no salt, but diethylene glycol.

Savinase = target: T2, Savinase (Lederbergia lenta, UniProt P29600); assay: storage stability of protease (Savinase activity, Suc-AAPF-pNA substrate) in liquid formulations at 37° C.; format: biochemical; details: Savinase 16.0 L 0.5 wt %, storage at 37° C.
T2 construct: purchased Sigma-Aldrich
T2 sequence (P29600 1-269): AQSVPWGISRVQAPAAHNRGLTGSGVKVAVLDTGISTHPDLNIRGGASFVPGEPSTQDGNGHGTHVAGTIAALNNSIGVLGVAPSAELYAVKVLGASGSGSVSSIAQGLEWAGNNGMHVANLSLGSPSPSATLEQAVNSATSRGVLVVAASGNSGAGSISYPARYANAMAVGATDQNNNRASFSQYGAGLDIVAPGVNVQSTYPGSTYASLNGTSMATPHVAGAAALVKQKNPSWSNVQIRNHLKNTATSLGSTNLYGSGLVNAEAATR
Method: as §1, §2, §3, §4, §5
Savinase activity at certain points in time as indicated in Table 3 was be determined by employing Succinyl-Ala-Ala-Pro-Phe-p-nitroanilide (Suc-AAPF-pNA, short AAPF) as substrate. pNA is cleaved from the substrate molecule by proteolytic cleavage, resulting in release of yellow color of free pNA which was determined by measuring OD405. Measurement were done at 20° C.
The proteolytic activity values provided in Table 3 were calculated referring to the 100% value determined in the reference formulation at the time 0.
as §6

[1] = base formulation I., component (a) 2.5 wt %, 1 d
[2] = base formulation I., component (a) 2.5 wt %, 3 d
[3] = base formulation I., component (a) 2.5 wt %, 6 d
[4] = base formulation I., component (a) 2.5 wt %, 10 d
[5] = base formulation I., component (a) 2.5 wt %, 15 d
[6] = base formulation I., component (a) 2.5 wt %, 20 d
[7] = base formulation I., component (a) 2.5 wt %, 25 d
[8] = base formulation I., component (a) 2.5 wt %, 30 d
[9] = base formulation I., component (a) 2.5 wt %, T0
[10] = base formulation IV., component (a) 4.0 wt %, 1 d
[11] = base formulation IV., component (a) 4.0 wt %, 3 d
[12] = base formulation IV., component (a) 4.0 wt %, 6 d
[13] = base formulation IV., component (a) 4.0 wt %, 10 d
[14] = base formulation IV., component (a) 4.0 wt %, 15 d
[15] = base formulation IV., component (a) 4.0 wt %, 20 d
[16] = base formulation IV., component (a) 4.0 wt %, 25 d
[17] = base formulation IV., component (a) 4.0 wt %, 30 d
[18] = base formulation IV., component (a) 4.0 wt %, T0
[19] = base formulation III., component (a) 2.5 wt %, 1 d
[20] = base formulation III., component (a) 2.5 wt %, 3 d
[21] = base formulation III., component (a) 2.5 wt %, 6 d
[22] = base formulation III., component (a) 2.5 wt %, 10 d
[23] = base formulation III., component (a) 2.5 wt %, 15 d
[24] = base formulation III., component (a) 2.5 wt %, 20 d
[25] = base formulation III., component (a) 2.5 wt %, 25 d
[26] = base formulation III., component (a) 2.5 wt %, 30 d
[27] = base formulation III., component (a) 2.5 wt %, T0

Compound: C[N+](C)(C)CCO.C[N+](C)(C)CCO.O=C([O-])CC(O)(CC(=O)O)C(=O)[O-] [C-(A.17)]
- lipase activity (Lipolase; [1]): 90%
- lipase activity (Lipolase; [2]): 80%
- lipase activity (Lipolase; [3]): 70%
- lipase activity (Lipolase; [4]): 53%
- lipase activity (Lipolase; [5]): 42%
- lipase activity (Lipolase; [6]): 38%
- lipase activity (Lipolase; [7]): 33%
- lipase activity (Lipolase; [8]): 29%
- lipase activity (Lipolase; [9]): 97%
- lipase activity (Lipolase; [10]): 93%
- lipase activity (Lipolase; [11]): 86%
- lipase activity (Lipolase; [12]): 74%
- lipase activity (Lipolase; [13]): 63%
- lipase activity (Lipolase; [14]): 51%
- lipase activity (Lipolase; [15]): 46%
- lipase activity (Lipolase; [16]): 38%
- lipase activity (Lipolase; [17]): 33%
- lipase activity (Lipolase; [18]): 96%
- protease activity (Savinase; [1]): 90%
- protease activity (Savinase; [2]): 81%
- protease activity (Savinase; [3]): 70%
- protease activity (Savinase; [4]): 49%
- protease activity (Savinase; [5]): 38%
- protease activity (Savinase; [6]): 30%
- protease activity (Savinase; [7]): 23%
- protease activity (Savinase; [8]): 12%
- protease activity (Savinase; [9]): 98%
- protease activity (Savinase; [19]): 94%
- protease activity (Savinase; [20]): 83%
- protease activity (Savinase; [21]): 71%
- protease activity (Savinase; [22]): 53%
- protease activity (Savinase; [23]): 42%
- protease activity (Savinase; [24]): 34%
- protease activity (Savinase; [25]): 27%
- protease activity (Savinase; [26]): 14%
- protease activity (Savinase; [27]): 92%

Compound: C[N+](C)(C)CCO.C[N+](C)(C)CCO.C[N+](C)(C)CCO.O=C([O-])CC(O)(CC(=O)[O-])C(=O)[O-] [C-(A.18)]
- lipase activity (Lipolase; [1]): 91%
- lipase activity (Lipolase; [2]): 84%
- lipase activity (Lipolase; [3]): 72%
- lipase activity (Lipolase; [4]): 55%
- lipase activity (Lipolase; [5]): 45%
- lipase activity (Lipolase; [6]): 39%
- lipase activity (Lipolase; [7]): 32%
- lipase activity (Lipolase; [8]): 29%
- lipase activity (Lipolase; [9]): 98%
- lipase activity (Lipolase; [10]): 91%
- lipase activity (Lipolase; [11]): 84%
- lipase activity (Lipolase; [12]): 72%
- lipase activity (Lipolase; [13]): 58%
- lipase activity (Lipolase; [14]): 49%
- lipase activity (Lipolase; [15]): 46%
- lipase activity (Lipolase; [16]): 39%
- lipase activity (Lipolase; [17]): 35%
- lipase activity (Lipolase; [18]): 95%
- lipase activity (Lipolase; base formulation VI., component (a) 4.0 wt %, 1 d): 90%
- lipase activity (Lipolase; base formulation VI., component (a) 4.0 wt %, 3 d): 83%
- lipase activity (Lipolase; base formulation VI., component (a) 4.0 wt %, 6 d): 75%
- lipase activity (Lipolase; base formulation VI., component (a) 4.0 wt %, 10 d): 58%
- lipase activity (Lipolase; base formulation VI., component (a) 4.0 wt %, 15 d): 50%
- lipase activity (Lipolase; base formulation VI., component (a) 4.0 wt %, 20 d): 48%
- lipase activity (Lipolase; base formulation VI., component (a) 4.0 wt %, 25 d): 37%
- lipase activity (Lipolase; base formulation VI., component (a) 4.0 wt %, 30 d): 32%
- lipase activity (Lipolase; base formulation VI., component (a) 4.0 wt %, T0): 96%
- protease activity (Savinase; [19]): 94%
- protease activity (Savinase; [20]): 85%
- protease activity (Savinase; [21]): 72%
- protease activity (Savinase; [22]): 54%
- protease activity (Savinase; [23]): 43%
- protease activity (Savinase; [24]): 35%
- protease activity (Savinase; [25]): 28%
- protease activity (Savinase; [26]): 14%
- protease activity (Savinase; [27]): 94%
- protease activity (Savinase; base formulation V., component (a) 4.0 wt %, 1 d): 90%
- protease activity (Savinase; base formulation V., component (a) 4.0 wt %, 3 d): 83%
- protease activity (Savinase; base formulation V., component (a) 4.0 wt %, 6 d): 64%
- protease activity (Savinase; base formulation V., component (a) 4.0 wt %, 10 d): 50%
- protease activity (Savinase; base formulation V., component (a) 4.0 wt %, 15 d): 40%
- protease activity (Savinase; base formulation V., component (a) 4.0 wt %, 20 d): 33%
- protease activity (Savinase; base formulation V., component (a) 4.0 wt %, 25 d): 25%
- protease activity (Savinase; base formulation V., component (a) 4.0 wt %, 30 d): 16%
- protease activity (Savinase; base formulation V., component (a) 4.0 wt %, T0): 83%
